Laboratory results as given in patent US4866058A, “Method for control of hyperlipidemia” (priority 1988, dated 1989).
Like-named read-outs stand apart in the source and are kept apart here.

Columns and labels:
[1] = system: serum cholesterol and serum triglyceride levels; experiment: Testing of normal mice: hypolipidemic activity in CF1 mice; assay type: in vivo, CF1 male mice; details: for response vs control in vivo at 20 mg/kg/day: Mus musculus
Protocol: The following compounds were tested for their hypolpidemic activity in CF1 mice.
Compounds A-V as defined above, were suspended in an aqueous 1 percent carboxymethylcellulose (CMC) solution and homogenized. Each of the so prepared compounds were administered to a group of six CF1 male mice, each weighing approximately 25 grams, intraperitioneally for 16 days. Each of these compounds were provided in a dosage of 20 mg/kg/d ip. On Days 9 and 16 blood was obtained by tail vein bleeding. The blood serum so obtained was separated by centrifugation for three minutes. Serum cholesterol levels were determined by a modification of the Liebermann-Burchard reaction (Ness, Clin. Chim. Acta., Vol. 10, 229 [1964]). Serum triglyceride levels were determined on Day 16 by use of the Fisher, Hycel Triglyceride Test Kit.
In addition to the above-described treated mice, an untreated control group of six mice were similarly tested on Days 9 and 16 to determine their serum cholesterol and trigylceride blood levels. Based on the results obtained for the untreated control group, the percent control, based on serum cholesterol and serum triglyceride levels of the treated mice compared to the untreated mice, was obtained. Table 1 reports this percent control, including standard deviation, indicating the level of confidence of these numbers.

[2] = system: serum cholesterol and serum triglyceride levels; experiment: Testing of hyperlipidemic mice (atherogenic diet); assay type: in vivo, CF1 male mice; details: hyperlipidemic CF1 mice, 20 mg/kg/d intraperitoneally, Day 12
Protocol: A group of six CF^1 male mice (about 25 g) were placed on a commercial diet (U.S. Biochemical Corporation Basal Atherogenic Test Diet) which produced a "hyperlipidemic" state. That is, the average serum cholesterol level in the group of treated mice was raised from 122 to 375 mg percent and triglyceride levels were raised from 137 to 367 mg/dL.

[3] = in vivo; details: mouse, ip
[4] = system: serum lipoprotein; experiment: Cholesterol content of serum lipoprotein of treated Sprague-Dawley rats; assay type: in vivo; details: orally 14 days at 20 mg/kg/day
Excerpt: (§1) A test solution of Compounds A, F, J, M, N and O were suspended in an aqueous solution of 1% CMC, homogenized and administered orally to six Sprague-Dawley male rats, which each weighted approximately 350 grams. Administration of the compounds was by an intubation needle. The rats were each fed with 20 milligrams of Compounds A, F, J, M, N and O per kilogram of body weight per day for 14 days. Similarly, six Sprague-Dawley male rats of approximately the same weight (that used for testing F weighed approximately 160 grams) were fed similar volumes of the same aqueous 1% CMC solution without the active agents, also orally, administered by intubation needle. In addition, as a control, a similar group of six male Sprague-Dawley rats were untreated.
The cholesterol content of serum lipoprotein
of Sprague-Dawley Rats treated
orally for 14 days at 20 mg/kg/day

[5] = system: plasma lipids; details: rats; cited from earlier work
[6] = LD50 value in mice as single injection IP; details: mouse, in vivo
[7] = system: Serum cholesterol and triglyceride levels; experiment: Serum testing of normal rats; assay type: in vivo, Sprague-Dawley male rats; details: 20 mg/kg per day orally
Excerpt: as §1
On Days 7 and 14, blood was obtained from each of the rats of the three groups by tail vein bleeding. The blood obtained was separated by centrifugation for three minutes. Serum cholesterol and triglyceride levels were determined in accordance with the procedure of Example 6.

[8] = 216 h, normal CF1 mice, 20 mg/kg/d ip, Day 9, read-out: Serum Cholesterol, Day 9
[9] = 384 h, normal CF1 mice, 20 mg/kg/d ip, Day 16, read-out: Serum Cholesterol, Day 16
[10] = 384 h, normal CF1 mice, 20 mg/kg/d ip, Day 16, read-out: Serum Triglyceride, Day 16
[11] = normal CF1 mice, 20 mg/kg/d ip, Day 16
[12] = ip, 216 h, read-out: Serum Cholesterol, Day 9
[13] = ip, 384 h, read-out: Serum Cholesterol, Day 16
[14] = ip, 384 h, read-out: Serum Triglyceride, Day 16

Compound | response vs control in vivo at 20 mg/kg/day [1, 8] [%] | response vs control in vivo at 20 mg/kg/day [1, 9] [%] | response vs control in vivo at 20 mg/kg/day [1, 10] [%] | further results
CCCCn1c(=O)[nH][nH]c1=O [G, 4-(4-n-butyl)-1,2,4-triazolidine-3,5-dione] | 71 ± 6 | 69 ± 5 | 79 ± 8 | 
CCOC(=O)n1[nH]c(=O)n(-c2ccccc2)c1=O [C, 4-phenyl-1-ethoxycarbonyl-1,2,4-triazolidine-3,5-dione] | 73 ± 7 | 69 ± 5 | 62 ± 6 | 
4-(4- -n-butyl)-1,2 dipentylcarbonyl-1,2,4-triazolidine-3,5-dione |  |  |  | Serum Cholesterol, Day 9 ([1]; normal CF1 mice, 20 mg/kg/d ip, Day 9): 69 percent control; Serum Cholesterol, Day 16 [1, 11]: 49 percent control; Serum Triglyceride, Day 16 [1, 11]: 53 percent control
CC(=O)n1[nH]c(=O)n(-c2ccccc2)c1=O [A, 4-phenyl-1-methylcarbonyl-1,2,4-triazolidine-3,5-dione] | 67 ± 5 | 61 ± 6 | 48 ± 6 | Serum Cholesterol [2]: 41% of Control; Serum Triglyceride [2]: 40% of Control; LD50 [3]: > 500 mg/kg
COc1ccc(-n2c(=O)n(C(C)=O)n(C(C)=O)c2=O)cc1 [P, 4(4-methoxyphenyl)-1,2-dimethylcarbonyl-1,2,4-triazolidine-3,5-dione] | 76 | 57 | 49 | 
COc1ccc(-n2c(=O)[nH][nH]c2=O)cc1 [F, 4-(4-methoxyphenyl)-1,2,4-triazolidine-3,5-dione] | 75 ± 5 | 56 ± 4 | 58 ± 3 | 
CC(=O)n1[nH]c(=O)n(-c2ccc(Cl)cc2)c1=O [Compound D, 4-(4-chlorophenyl)-1-methylcarbonyl-1,2,4-triazolidine-3,5-dione] | 73 ± 4 | 64 ± 6 | 55 ± 7 | 
CC(=O)n1c(=O)n(-c2ccccc2)c(=O)n1C(C)=O [B, 4-phenyl-1,2-dimethylcarbonyl-1,2,4-triazolidine-3,5-dione] | 70 ± 6 | 64 ± 5 | 61 ± 5 | 
CCC(=O)n1c(=O)n(-c2ccc([N+](=O)[O-])cc2)c(=O)n1C(=O)CC [Compound S, 4-(4-nitrophenyl)-1,2 diethylcarbonyl-1,2,4-triazolidine-3,5-dione] | 72 | 36 | 62 | 
CCOC(=O)c1nc(=O)n(-c2ccc(Cl)cc2)c(=O)[nH]1 [O, 3-(4-chlorophenyl)-6-ethoxycarbonyl-1,3,5-triazine-2,4(1 --H,3 --H)-dione] | 63 ± 4 | 57 ± 4 | 55 ± 6 | 
COc1ccc(-n2c(=O)n(C(=O)c3ccccc3)n(C(=O)c3ccccc3)c2=O)cc1 [Q, 4.(4-methoxyphenyl)-1,2-diphenylcarbonyl-1,2,4-triazolidine-3,5-dione] | 67 | 86 | 75 | 
CCOC(=O)c1nc(=O)n(-c2ccccc2)c(=O)[nH]1 [Compound N, 3-phenyl-6-ethoxycarbonyl-1,3,5-triazine-2,4(1 --H,3 --H)-dione] | 63 ± 6 | 54 ± 5 | 51 ± 2 | VLDL cholesterol [4]: 50% of Control; Serum Cholesterol [2]: 50% of Control; Serum Triglyceride [2]: 46% of Control
CCCCCC(=O)n1[nH]c(=O)n(-c2ccc(Cl)cc2)c1=O [V, 4-(4-chlorophenyl)1-pentylcarbonyl (2 --H)-1,2,4-triazolidine-3,5 dione] | 77 | 52 | 42 | 
O=C(O)c1cc(=O)[nH]c(=O)[nH]1 [Orotic acid] |  |  |  | plasma lipids blood level [5]: decrease the plasma lipids blood level in rats
CCOC(=O)C1n2c(=O)n(-c3ccc(Cl)cc3)c(=O)n21 [L, 3-(4-chlorophenyl)-6-ethoxyacarbonyl-1,3,5-triazabicyclo[3.1.0]hexane-2,4-dione] |  |  |  | response vs control in vivo at 20 mg/kg/day [1, 12]: 74 ± 3%; response vs control in vivo at 20 mg/kg/day [1, 13]: 56 ± 5%; response vs control in vivo at 20 mg/kg/day [1, 14]: 66 ± 7%
O=c1[nH][nH]c(=O)n1-c1ccc(Cl)cc1 [J, 4-(4-chlorophenyl)-1,2,4-triazolidine-3,5-dione] | 90 ± 5 | 58 ± 4 | 43 ± 4 | Serum Cholesterol [2]: 46% of Control; Serum Triglyceride [2]: 49% of Control; LD50 [3]: > 500 mg/kg
CCOC(=O)C1n2c(=O)n(-c3ccccc3)c(=O)n21 [M, 3-phenyl-6-ethoxycarbonyl-1,3,5-triazabicyclo[3.1.0]hexane-2,4-dione] |  |  |  | HDL cholesterol [4]: 340% of Control; LDL cholesterol [4]: 67% of Control; VLDL cholesterol [4]: 71% of Control; LD50 [6]: > 500 mg/kg; Serum Cholestrol, Day 7 ([7]; Day 7): 70% of Control; Serum Triglyceride, Day 7 ([7]; Day 7): 36% of Control; Serum Cholestrol, Day 14 ([7]; Day 14): 36% of Control; Serum Triglyceride, Day 14 ([7]; Day 14): 54% of Control; Serum Cholesterol [2]: 46% of Control; Serum Triglyceride [2]: 54% of Control; response vs control in vivo at 20 mg/kg/day [1, 12]: 62 ± 6%; response vs control in vivo at 20 mg/kg/day [1, 13]: 57 ± 5%; response vs control in vivo at 20 mg/kg/day [1, 14]: 59 ± 6%
CC(=O)n1c(=O)n(-c2ccc(Cl)cc2)c(=O)n1C(C)=O [U, 4-(4-chlorophenyl)-1,2-dimethylcarbonyl-1,2,4-triazolidine-3,5-dione] | 72 | 51 | 51 | 
O=c1[nH][nH]c(=O)n1-c1ccccc1 [E, 4-phenyl-1,2,4-triazolidine-3,5-dione] | 71 ± 5 | 48 ± 3 | 68 ± 6 | 
O=c1[nH][nH]c(=O)[nH]1 [Parent, 1,2,4-triazolidine-3,5-dione] | 81 | 79 | 73 | 
Cn1c(=O)[nH][nH]c1=O [K, 4-methyl-1,2,4-triazolidine-3,5-dione] | 88 ± 6 | 67 ± 5 | 89 ± 5 | 
O=c1[nH][nH]c(=O)n1-c1ccc([N+](=O)[O-])cc1 [H, 4-(4-nitrophenyl)-1,2,4-triazolidine-3,5-dione] | 73 ± 5 | 66 ± 5 | 47 ± 5 | 
CCC(=O)n1c(=O)n(-c2ccc(OC)cc2)c(=O)n1C(=O)CC [R, 4.(4-methoxyphenyl)-1,2 diethylcarbonyl-1,2,4-triazolidine-3,5-dione] | 62 | 63 | 62 | 
